# Laboratory results: US20250215012A1, “IKZF2 DEGRADERS AND USES THEREOF” (REGENTS OF THE UNIVERSITY OF MICHIGAN, priority 2022, published 2025)
# Like-named read-outs stand apart in the source and are kept apart here.
# Assays:
# [1] = target: His tagged CRBN+DDB−DLS7+CXU4 (Homo sapiens (Human), UniProt Q96SW2); assay: IC50 Measurements for Binding to CRBN/DDBI (HTRF); conditions: Cy5-labeled Thalidomide probe, one hour incubation
# IKZF2 [2] = target: T1, IKZF2 (Homo sapiens (Human), UniProt Q96SW2+Q9UKS7); assay: IKZF2 HiBit Assay (HEK293T Flp-in-HiBiT cells); assay type: cell-based; conditions: for DC50: read-out: IKZF2 HiBit degradation DC50; for Dmax: HEK-293T, read-out: IKZF2 HiBit degradation Dmax
# Summary of the method: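 HEK293T Flp-in cells carrying CRISPR-inserted N-terminal HiBiT tag at the endogenous IKZF2 locus were treated with an 11-point, 3-fold dilution from 1 mM (stock) for 6 hrs; final DMSO 0.1%. HiBiT luminescence was detected after lysis with LgBiT/substrate reagent. DMSO-normalized curves gave 50% degradation concentration and Dmax.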
# IKZF1 = IKZF1 (Homo sapiens (Human), UniProt Q13422+Q96SW2); assay: IKZF1 HiBit Assay (HEK293T Flp-in-HiBiT-IKZF1 stable cell line); assay type: cell-based; conditions: for DC50: read-out: IKZF1 HiBit degradation DC50; for Dmax: HEK-293T, read-out: IKZF1 HiBit degradation Dmax
# Summary of the method: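 HEK293T Flp-in cells with CRISPR-inserted N-terminal HiBiT tag treated 6 h with 11-point threefold dilutions (0.1% DMSO). Nano-Glo HiBiT lytic luminescence normalised to DMSO gave the 50%-degradation concentration; Dmax taken as the luminescence range from highest to lowest concentration.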
# IKZF2 [3] = target: IKZF2 (Homo sapiens (Human), UniProt Q9UKS7); assay: IKZF2 FACS Assay (Jurkat cells); assay type: cell-based; conditions: Jurkat cells, 24 hrs; read-out: IKZF2 FACS degradation DC50
# Method: (§1) Jurkat cells (ATCC, Cat […]) were cultured in RPMI1640+10% FBS+1% P/S. Cells were treated at desired compound concentrations (0.05 to 10 μM) and DMSO as vehicle control for 24 hrs.
# IKZF2 [4] = target: T1, IKZF2; assay: IKZF2 FACS Assay (Jurkat cells); assay type: cell-based; conditions: read-out: IKZF2 FACS degradation Dmax
# Method: as §1
# IKZF2 [5] = target: T1, IKZF2; assay: IKZF2 HiBiT Assay (Jurkat-IKZF2-HiBiT cell line); assay type: cell-based; conditions: Jurkat-IKZF2-HiBiT cells, 24 hours; for DC50: read-out: HiBit assay degradation analysis DC50; for Dmax: read-out: HiBit assay degradation analysis Dmax
# Summary of the method: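 Jurkat cells carrying HiBiT-tagged IKZF2 were exposed to serially diluted compound for 24 h at 37 °C. Remaining IKZF2 was measured by Nano-Glo HiBiT lytic luminescence after 10-20 min at room temperature. Signal was normalized to DMSO, and IC50 came from a four-parameter variable-slope fit.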
# [6] = target: GST-tagged wild-type human CRBN protein (Homo sapiens (Human), UniProt Q96SW2); assay: Cereblon Binding Assay (Cisbio Cereblon Binding Kit, TR-FRET); conditions: about 3 hours at room temperature
# Method: (§2) The binding to cereblon (CRBN) is determined using the Cereblon Binding Kit (Cisbio, #64BDCRBNPEG) following the manufacturer's instruction. Briefly, serially diluted compounds are incubated with GST-tagged wild-type human CRBN protein, XL665-labelled Thalidomide and Europium Cryptate labelled GST antibody.
# as §2, with “(CRBN) was” for “(CRBN) is”, “compounds were” for “compounds are”, “GST antibody at room temperature for about 3 hours.” for “GST antibody.”
# [7] = HEK293T Flp-in-HiBiT cells, 6 hrs
# [8] = HEK293T Flp-in-HiBiT-IKZF1 cells, 6 hrs
# Chain of IKZF1 (Q13422 whole entry): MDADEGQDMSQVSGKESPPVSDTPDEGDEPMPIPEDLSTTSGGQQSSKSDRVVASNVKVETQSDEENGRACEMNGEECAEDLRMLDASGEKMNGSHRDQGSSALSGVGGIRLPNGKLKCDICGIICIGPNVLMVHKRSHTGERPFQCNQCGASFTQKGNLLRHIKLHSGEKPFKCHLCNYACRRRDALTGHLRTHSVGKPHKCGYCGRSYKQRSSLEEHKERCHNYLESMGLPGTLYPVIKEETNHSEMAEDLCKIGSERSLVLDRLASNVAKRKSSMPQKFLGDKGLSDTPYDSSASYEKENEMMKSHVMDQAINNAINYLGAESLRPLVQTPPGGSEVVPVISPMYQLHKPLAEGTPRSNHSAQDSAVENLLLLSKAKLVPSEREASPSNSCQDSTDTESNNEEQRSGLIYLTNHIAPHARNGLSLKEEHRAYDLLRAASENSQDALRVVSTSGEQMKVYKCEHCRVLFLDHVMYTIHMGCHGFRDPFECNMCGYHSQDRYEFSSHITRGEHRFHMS
# Chain of IKZF1 (Q96SW2 whole entry): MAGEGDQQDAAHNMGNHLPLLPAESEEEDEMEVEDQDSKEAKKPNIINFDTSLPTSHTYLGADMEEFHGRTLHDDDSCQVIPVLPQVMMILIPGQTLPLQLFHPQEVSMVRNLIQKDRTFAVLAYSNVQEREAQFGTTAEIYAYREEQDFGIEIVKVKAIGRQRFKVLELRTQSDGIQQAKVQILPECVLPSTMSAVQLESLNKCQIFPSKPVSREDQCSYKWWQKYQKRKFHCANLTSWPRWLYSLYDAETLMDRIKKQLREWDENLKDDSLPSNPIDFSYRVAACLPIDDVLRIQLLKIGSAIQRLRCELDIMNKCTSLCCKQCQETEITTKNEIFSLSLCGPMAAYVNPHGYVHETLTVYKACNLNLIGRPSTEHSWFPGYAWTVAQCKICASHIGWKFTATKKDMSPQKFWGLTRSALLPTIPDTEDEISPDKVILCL
# Chain of IKZF1 (Q16531 whole entry partner): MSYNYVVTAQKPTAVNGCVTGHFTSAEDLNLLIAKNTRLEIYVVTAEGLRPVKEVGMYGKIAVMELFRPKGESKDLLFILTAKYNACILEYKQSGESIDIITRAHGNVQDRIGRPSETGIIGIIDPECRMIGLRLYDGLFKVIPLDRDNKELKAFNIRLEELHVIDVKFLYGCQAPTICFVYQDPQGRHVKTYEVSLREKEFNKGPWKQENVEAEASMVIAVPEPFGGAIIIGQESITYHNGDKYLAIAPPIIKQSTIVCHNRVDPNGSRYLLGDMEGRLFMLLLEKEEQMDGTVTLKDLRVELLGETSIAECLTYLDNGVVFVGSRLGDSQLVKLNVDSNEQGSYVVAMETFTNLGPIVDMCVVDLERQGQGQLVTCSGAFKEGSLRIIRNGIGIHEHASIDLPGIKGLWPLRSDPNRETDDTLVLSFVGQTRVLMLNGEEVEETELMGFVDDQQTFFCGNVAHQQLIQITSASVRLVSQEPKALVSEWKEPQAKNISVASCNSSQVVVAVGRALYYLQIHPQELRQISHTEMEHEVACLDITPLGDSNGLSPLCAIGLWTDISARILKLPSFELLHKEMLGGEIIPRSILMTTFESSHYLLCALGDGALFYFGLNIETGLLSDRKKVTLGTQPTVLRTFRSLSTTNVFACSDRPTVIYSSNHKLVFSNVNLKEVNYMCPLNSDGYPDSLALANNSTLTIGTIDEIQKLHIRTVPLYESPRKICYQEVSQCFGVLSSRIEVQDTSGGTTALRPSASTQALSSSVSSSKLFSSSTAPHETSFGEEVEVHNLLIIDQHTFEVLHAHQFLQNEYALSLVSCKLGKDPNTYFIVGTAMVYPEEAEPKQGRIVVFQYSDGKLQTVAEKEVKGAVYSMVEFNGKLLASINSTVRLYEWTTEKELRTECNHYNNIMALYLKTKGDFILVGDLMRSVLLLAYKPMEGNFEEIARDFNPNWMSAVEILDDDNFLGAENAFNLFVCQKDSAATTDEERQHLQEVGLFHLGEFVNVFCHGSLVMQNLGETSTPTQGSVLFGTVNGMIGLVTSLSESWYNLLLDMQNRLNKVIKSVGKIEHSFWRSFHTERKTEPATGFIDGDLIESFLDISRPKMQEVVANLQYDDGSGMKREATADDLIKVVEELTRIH
# Chain of IKZF2 (Homo sapiens (Human), UniProt Q9UKS7) (Q9UKS7 whole entry): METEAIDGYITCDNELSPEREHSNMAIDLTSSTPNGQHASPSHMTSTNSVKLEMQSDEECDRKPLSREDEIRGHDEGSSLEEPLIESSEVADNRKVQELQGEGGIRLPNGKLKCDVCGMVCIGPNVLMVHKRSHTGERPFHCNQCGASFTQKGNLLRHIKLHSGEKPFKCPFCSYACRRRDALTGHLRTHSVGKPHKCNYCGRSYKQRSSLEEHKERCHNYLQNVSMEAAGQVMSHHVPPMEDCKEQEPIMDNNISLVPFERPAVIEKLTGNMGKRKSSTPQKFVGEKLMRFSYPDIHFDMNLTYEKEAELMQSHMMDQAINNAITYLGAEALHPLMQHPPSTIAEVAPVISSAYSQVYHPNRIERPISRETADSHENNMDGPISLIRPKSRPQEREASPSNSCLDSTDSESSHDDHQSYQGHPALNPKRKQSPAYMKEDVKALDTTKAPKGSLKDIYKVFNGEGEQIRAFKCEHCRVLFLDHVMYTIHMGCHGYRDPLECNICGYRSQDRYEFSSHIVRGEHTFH
# Chain of IKZF2 (Homo sapiens (Human), UniProt Q9UKS7) (Q96SW2 whole entry, further chain): as the sequence (Q96SW2 whole entry) above
# Chain of IKZF2 (Homo sapiens (Human), UniProt Q9UKS7) (Q16531 whole entry partner): as the sequence (Q16531 whole entry partner) above
# T1 sequence (Q9UKS7 whole entry): as the sequence (Q9UKS7 whole entry) above
# T1 sequence (Q96SW2 whole entry): as the sequence (Q96SW2 whole entry) above
# T1 sequence (Q16531 whole entry partner): as the sequence (Q16531 whole entry partner) above
# Chain of GST-tagged wild-type human CRBN protein (Q96SW2 whole entry): as the sequence (Q96SW2 whole entry) above
# Chain of His tagged CRBN+DDB−DLS7+CXU4 (Q96SW2 whole entry): as above
# Chain of His tagged CRBN+DDB−DLS7+CXU4 (Q16531 whole entry partner): as the sequence (Q16531 whole entry partner) above
SMILES,IC50 [1] [nM],DC50 (IKZF2 [2]; [7]) [nM],Dmax (IKZF2 [2]; [7]) [%],DC50 (IKZF1; [8]) [nM],Dmax (IKZF1; [8]) [%],DC50 (IKZF2 [3]) [nM],"Dmax (IKZF2 [4]; Jurkat cells, 24 hrs) [%]",Dmax (IKZF2 [2]) [%],Dmax (IKZF1) [%],Dmax (IKZF2 [4]; Jurkat) [%],DC50 (IKZF2 [5]) [nM],Dmax (IKZF2 [5]) [%],IC50 [6] [nM]
"O=C1CC[C@H](N2Cc3c(ccc4c3OCC43CCN(Cc4cccc(-c5cnn(C6COC6)c5)c4)CC3(F)F)C2=O)C(=O)N1 (stereo partly drawn) [Compound B32, (3S)-3-(3′,3′-difluoro-1′-(3-(1-(oxetan-3-yl)-1H-pyrazol-4-yl)benzyl)-6-oxo-6,8-dihydro-2H,7H-spiro[furo[2,3-e]isoindole-3,4′-piperidin]-7-yl)piperidine-2,6-dione]",100 to 500,< 1,60 to 80,> 1000,< 20,< 10,40 to 60,–,–,–,–,–,–
"N#Cc1ccc(-n2cc(CN3CCC4(COc5c4ccc4c5CN([C@H]5CCC(=O)NC5=O)C4=O)C(F)(F)C3)cn2)cc1 (stereo partly drawn) [Compound B27, 4-(4-((7-((S)-2,6-dioxopiperidin-3-yl)-3′,3′-difluoro-6-oxo-7,8-dihydro-2H,6H-spiro[furo[2,3-e]isoindole-3,4′-piperidin]-1′-yl)methyl)-1H-pyrazol-1-yl)benzonitrile]",–,1 to 10,60 to 80,> 1000,< 20,> 10,< 40,–,–,–,–,–,–
"O=C1CC[C@H](N2Cc3c(ccc4c3OC[C@]43CCN(Cc4cccc(-c5cnn(C6COC6)c5)c4)CC3(F)F)C2=O)C(=O)N1 [Compound B53, (S)-3-((S)-3′,3′-difluoro-1′-(3-(1-(oxetan-3-yl)-1H-pyrazol-4-yl)benzyl)-6-oxo-6,8-dihydro-2H,7H-spiro[furo[2,3-e]isoindole-3,4′-piperidin]-7-yl)piperidine-2,6-dione]",–,< 1,> 80,> 1000,< 20,< 10,40 to 60,–,–,–,–,–,–
"Cn1cc(-c2cccc(CN3CCC4(COc5c4ccc4c5CN(C5CCC(=O)NC5=O)C4=O)C(F)(F)C3)c2)cn1 (stereo not drawn) [Compound B26, 3-(3′,3′-difluoro-1′-(3-(1-methyl-1H-pyrazol-4-yl)benzyl)-6-oxo-6,8-dihydro-2H,7H-spiro[furo[2,3-e]isoindole-3,4′-piperidin]-7-yl)piperidine-2,6-dione]",–,1 to 10,> 80,> 1000,< 20,< 10,> 60,–,–,–,–,–,–
"O=C1CC[C@H](N2Cc3c(ccc4c3OCC43CCN(Cc4cnn(CC5CCOCC5)c4)CC3(F)F)C2=O)C(=O)N1 (stereo partly drawn) [Compound B46, (3S)-3-(3′,3′-difluoro-6-oxo-1′-((1-((tetrahydro-2H-pyran-4-yl)methyl)-1H-pyrazol-4-yl)methyl)-6,8-dihydro-2H,7H-spiro[furo[2,3-e]isoindole-3,4′-piperidin]-7-yl)piperidine-2,6-dione]",–,1 to 10,60 to 80,> 1000,< 20,< 10,40 to 60,–,–,–,–,–,–
"Cn1cc(-c2cccc(CN3CC[C@]4(COc5c4ccc4c5CN([C@H]5CCC(=O)NC5=O)C4=O)C(F)(F)C3)c2)cn1 [Compound B51, (S)-3-((S)-3′,3′-difluoro-1′-(3-(1-methyl-1H-pyrazol-4-yl)benzyl)-6-oxo-6,8-dihydro-2H,7H-spiro[furo[2,3-e]isoindole-3,4′-piperidin]-7-yl) piperidine-2,6-dione]",< 100,< 1,60 to 80,> 1000,< 20,< 10,> 60,–,–,–,–,–,–
"Cn1cc(-c2cccc(CN3CCC4(CC3)COc3c4ccc4c3CN([C@@H]3CCC(=O)NC3=O)C4=O)c2)cn1 [Compound B14, (R)-3-(1′-(3-(1-methyl-1H-pyrazol-4-yl)benzyl)-6-oxo-6,8-dihydro-2H,7H-spiro[furo[2,3-e]isoindole-3,4′-piperidin]-7-yl)piperidine-2,6-dione]",1000 to 5000,1 to 10,–,> 1000,–,> 10,–,> 80,< 20,40 to 60,–,–,–
"Cn1cc(-c2cccc(CN3CCC4(CC3)COc3c5c(cc(F)c34)C(=O)N([C@H]3CCC(=O)NC3=O)C5)c2)cn1 [Compound B55, (S)-3-(4-fluoro-1′-(3-(1-methyl-1H-pyrazol-4-yl)benzyl)-6-oxo-6,8-dihydro-2H,7H-spiro[furo[2,3-e]isoindole-3,4′-piperidin]-7-yl)piperidine-2,6-dione]",–,< 1,> 80,> 1000,< 20,< 10,40 to 60,–,–,–,–,–,–
"O=C1CCC(N2Cc3c(ccc4c3OCC43CCN(Cc4ccccc4)CC3)C2=O)C(=O)N1 (stereo not drawn) [Compound A8, 3-(1′-benzyl-6-oxo-6,8-dihydro-2H,7H-spiro[furo[2,3-e]isoindole-3,4′-piperidin]-7-yl)piperidine-2,6-dione]",–,–,–,–,–,–,–,–,–,–,200 to 500,40 to 60,100 to 1000
"O=C1CCC(N2Cc3c(ccc4c3OCC43CCN(Cc4cccc(-c5cc[nH]n5)c4)CC3)C2=O)C(=O)N1 (stereo not drawn) [Compound A160, 3-(1′-(3-(1H-pyrazol-3-yl)benzyl)-6-oxo-6,8-dihydro-2H,7H-spiro[furo[2,3-e]isoindole-3,4′-piperidin]-7-yl)piperidine-2,6-dione]",–,–,–,–,–,–,–,–,–,–,< 50,60 to 80,10 to 100
"O=C1CCC(N2Cc3c(ccc4c3OCC43CCN(Cc4cccc(-c5cnco5)c4)CC3)C2=O)C(=O)N1 (stereo not drawn) [Compound A125, 3-(1′-(3-(oxazol-5-yl)benzyl)-6-oxo-6,8-dihydro-2H,7H-spiro[furo[2,3-e]isoindole-3,4′-piperidin]-7-yl)piperidine-2,6-dione]",–,–,–,–,–,–,–,–,–,–,< 50,60 to 80,100 to 1000
